In patent publication US12371454B2, “Cyclic peptide compound having Kras inhibitory action” (priority 2019, dated 2025):
Positions of bridges follow the written chain, without caps; N, C: chain ends. Non-standard residues stand in square brackets, D forms with d. Residues, ends and D or L forms follow the SMILES beside them. *: point of attachment. hPhe(3-Cl-4-CF3) = N[C@@H](CCc1ccc(C(F)(F)F)c(Cl)c1)C(=O)O; hPhe(3-F,4-CF3) = N[C@@H](CCc1ccc(C(F)(F)F)c(F)c1)C(=O)O; NMeNle(6-CHF2) = CN[C@@H](CCCCC(F)F)C(=O)O; NMeGly(cPent) = CN[C@H](C(=O)O)C1CCCC1; NMeCha = CN[C@@H](CC1CCCCC1)C(=O)O; NMeAllylGly = C=CC[C@H](NC)C(=O)O; NMeChg = CN[C@H](C(=O)O)C1CCCCC1; dNMeF = CN[C@H](Cc1ccccc1)C(=O)O; αMeF = C[C@](N)(Cc1ccccc1)C(=O)O; NMeD = CN[C@@H](CC(=O)O)C(=O)O; NMeL = CN[C@@H](CC(C)C)C(=O)O; Chg = N[C@H](C(=O)O)C1CCCCC1; dNMeAbu = CC[C@@H](NC)C(=O)O; NMeV = CN[C@H](C(=O)O)C(C)C; d(β3hA) = C[C@@H](N)CC(=O)O; dNMeS = CN[C@H](CO)C(=O)O; NMeA = CN[C@@H](C)C(=O)O; Piperidide = C1CCN(*)CC1; Pyrrolidide = C1CCN(*)C1; Ac5c = NC1(C(=O)O)CCCC1; Aze = O=C(O)[C@@H]1CCN1; Aib = CC(C)(N)C(=O)O; Isopentyl = CC(C)CC*; Sar = CNCC(=O)O

Target: T1, Kras and SOS1 (biotin-tagged human Kras loaded with GDP, His-tagged human SOS1) (Homo sapiens, UniProt P01116, G12D)
T1 construct: made in house; host or cells: E. coli (stated for Kras only)
T1 sequence (P01116 1-188 isoform P01116-2 G12D): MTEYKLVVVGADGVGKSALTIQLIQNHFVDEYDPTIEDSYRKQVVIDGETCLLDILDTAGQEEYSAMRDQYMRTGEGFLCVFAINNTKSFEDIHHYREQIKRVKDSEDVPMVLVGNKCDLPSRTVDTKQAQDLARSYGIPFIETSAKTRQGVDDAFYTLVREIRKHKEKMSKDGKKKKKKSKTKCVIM
Test: Protein-protein interaction inhibition between Kras and SOS1 (KrasGl2D-SOS PPI) using AlphaScreen
Assay type: binding
Conditions: AlphaScreen; biotin-tagged human Kras loaded with GDP, His-tagged human SOS1; read-out: KRAS G12D-SOS PPI IC50
Summary of the method: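 AlphaScreen format: Ni donor beads capture His-SOS1, streptavidin acceptor beads capture biotinylated Kras (E. coli-expressed, GDP-loaded post-purification). Excite 680 nm, read 520-620 nm.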

CC[C@H](C)[C@@H]1NC(=O)[C@H](CC(C)C)N(C)C(=O)C[C@@H](C(=O)N2CCCCC2)N(C)C(=O)[C@H](C(C)C)N(C)C(=O)C2(CCCC2)NC(=O)[C@@H](COCCC(C)C)N(C)C(=O)[C@H](CCc2ccc(C(F)(F)F)c(Cl)c2)NC(=O)CN(C)C(=O)[C@H](CC2CCCCC2)N(C)C(=O)[C@@H]2CCN2C(=O)[C@H](C)N(C)C1=O [Compound 1437] ([NMeL]I[NMeA][Aze][NMeCha][Sar][hPhe(3-Cl-4-CF3)][dNMeS](Isopentyl)[Ac5c][NMeV][NMeD]-Piperidide; lactam N-11)
IC50: 81 nM

CC[C@@H]1C(=O)NC2(CCCC2)C(=O)N(C)[C@@H](C(C)C)C(=O)N(C)[C@H](C(=O)N2CCCCC2)CC(=O)N(C)[C@@H](CC(C)C)C(=O)N[C@@H]([C@@H](C)CC)C(=O)N(C)[C@@H](C)C(=O)N2CC[C@H]2C(=O)N(C)[C@@H](CC2CCCCC2)C(=O)N(C)CC(=O)N[C@@H](CCc2ccc(C(F)(F)F)c(Cl)c2)C(=O)N1C [Compound 1438] ([NMeL]I[NMeA][Aze][NMeCha][Sar][hPhe(3-Cl-4-CF3)][dNMeAbu][Ac5c][NMeV][NMeD]-Piperidide; lactam N-11)
IC50: 36 nM

CC[C@H](C)[C@@H]1NC(=O)[C@H](CC(C)C)N(C)C(=O)C[C@@H](C(=O)N2CCCCC2)N(C)C(=O)[C@H](C2CCCC2)N(C)C(=O)C2(CCCC2)NC(=O)[C@@H](COCCC(C)C)N(C)C(=O)[C@H](CCc2ccc(C(F)(F)F)c(Cl)c2)NC(=O)CN(C)C(=O)[C@H](CC2CCCCC2)N(C)C(=O)CN(C)C(=O)CN(C)C1=O [Compound 1440] ([NMeL]I[Sar][Sar][NMeCha][Sar][hPhe(3-Cl-4-CF3)][dNMeS](Isopentyl)[Ac5c][NMeGly(cPent)][NMeD]-Piperidide; lactam N-11)
IC50: 16 nM

CC[C@@H]1C(=O)NC2(CCCC2)C(=O)N(C)[C@@H](C2CCCC2)C(=O)N(C)[C@H](C(=O)N2CCCCC2)CC(=O)N(C)[C@@H](CC(C)C)C(=O)N[C@@H]([C@@H](C)CC)C(=O)N(C)[C@@H](C)C(=O)N2CC[C@H]2C(=O)N(C)[C@@H](CC2CCCCC2)C(=O)N(C)CC(=O)N[C@@H](CCc2ccc(C(F)(F)F)c(Cl)c2)C(=O)N1C [Compound 1441] ([NMeL]I[NMeA][Aze][NMeCha][Sar][hPhe(3-Cl-4-CF3)][dNMeAbu][Ac5c][NMeGly(cPent)][NMeD]-Piperidide; lactam N-11)
IC50: 6.4 nM

CC[C@H](C)[C@@H]1NC(=O)[C@H](CC(C)C)N(C)C(=O)C[C@@H](C(=O)N2CCCCC2)N(C)C(=O)[C@H](C(C)C)N(C)C(=O)C2(CCCC2)NC(=O)[C@@H](Cc2ccccc2)N(C)C(=O)[C@H](CCc2ccc(C(F)(F)F)c(Cl)c2)NC(=O)CN(C)C(=O)[C@H](CC2CCCCC2)N(C)C(=O)[C@@H]2CCN2C(=O)[C@H](C)N(C)C1=O [Compound 1442] ([NMeL]I[NMeA][Aze][NMeCha][Sar][hPhe(3-Cl-4-CF3)][dNMeF][Ac5c][NMeV][NMeD]-Piperidide; lactam N-11)
IC50: 280 nM

CC[C@H](C)[C@@H]1NC(=O)[C@H](CC(C)C)N(C)C(=O)C[C@@H](C(=O)N2CCCCC2)N(C)C(=O)[C@H](C2CCCC2)N(C)C(=O)C2(CCCC2)NC(=O)[C@@H](COCCC(C)C)N(C)C(=O)[C@H](CCc2ccc(C(F)(F)F)c(Cl)c2)NC(=O)CN(C)C(=O)[C@H](CC2CCCCC2)N(C)C(=O)[C@@H]2CCN2C(=O)[C@H](C)N(C)C1=O [Compound 1443] ([NMeL]I[NMeA][Aze][NMeCha][Sar][hPhe(3-Cl-4-CF3)][dNMeS](Isopentyl)[Ac5c][NMeGly(cPent)][NMeD]-Piperidide; lactam N-11)
IC50: 23 nM

CC[C@H](C)[C@@H]1NC(=O)[C@H](CC(C)C)N(C)C(=O)C[C@@H](C(=O)N2CCCCC2)N(C)C(=O)[C@H](C(C)C)N(C)C(=O)C2(CCCC2)NC(=O)[C@@H](CO)N(C)C(=O)[C@H](CCc2ccc(C(F)(F)F)c(Cl)c2)NC(=O)CN(C)C(=O)[C@H](CC2CCCCC2)N(C)C(=O)[C@@H]2CCN2C(=O)[C@H](C)N(C)C1=O [Compound 1444] ([NMeL]I[NMeA][Aze][NMeCha][Sar][hPhe(3-Cl-4-CF3)][dNMeS][Ac5c][NMeV][NMeD]-Piperidide; lactam N-11)
IC50: 8.8 nM

C=CC[C@H]1C(=O)NC2(CCCC2)C(=O)N(C)[C@@H](C(C)C)C(=O)N(C)[C@H](C(=O)N2CCCCC2)CC(=O)N(C)[C@@H](CC(C)C)C(=O)N[C@@H]([C@@H](C)CC)C(=O)N(C)[C@@H](C)C(=O)N2CC[C@H]2C(=O)N(C)[C@@H](CC2CCCCC2)C(=O)N(C)CC(=O)N[C@@H](CCc2ccc(C(F)(F)F)c(Cl)c2)C(=O)N1C [Compound 1447] ([NMeL]I[NMeA][Aze][NMeCha][Sar][hPhe(3-Cl-4-CF3)][NMeAllylGly][Ac5c][NMeV][NMeD]-Piperidide; lactam N-11)
IC50: 100 nM

C=CC[C@H]1C(=O)NC2(CCCC2)C(=O)N(C)[C@@H](C2CCCCC2)C(=O)N(C)[C@H](C(=O)N2CCCCC2)CC(=O)N(C)[C@@H](CC(C)C)C(=O)N[C@@H]([C@@H](C)CC)C(=O)N(C)CC(=O)N(C)CC(=O)N(C)[C@@H](CC2CCCCC2)C(=O)N(C)CC(=O)N[C@@H](CCc2ccc(C(F)(F)F)c(Cl)c2)C(=O)N1C [Compound 1449] ([NMeL]I[Sar][Sar][NMeCha][Sar][hPhe(3-Cl-4-CF3)][NMeAllylGly][Ac5c][NMeChg][NMeD]-Piperidide; lactam N-11)
IC50: 14 nM

CC(C)C[C@H]1C(=O)N[C@@H](C2CCCCC2)C(=O)N(C)CC(=O)N(C)CC(=O)N(C)[C@@H](CCCCC(F)F)C(=O)N(C)CC(=O)N[C@@H](CCc2ccc(C(F)(F)F)c(F)c2)C(=O)N(C)[C@@H](CC(C)C)C(=O)N[C@@](C)(Cc2ccccc2)C(=O)N(C)[C@@H](CC(C)C)C(=O)N[C@H](C(=O)N2CCCC2)CC(=O)N1C [Compound 1450] ([NMeL][Chg][Sar][Sar][NMeNle(6-CHF2)][Sar][hPhe(3-F,4-CF3)][NMeL][αMeF][NMeL]D-Pyrrolidide; lactam N-11)
IC50: 220 nM

CC(C)C[C@H]1C(=O)N[C@@H](C(C)C)C(=O)N(C)CC(=O)N(C)CC(=O)N(C)[C@@H](CC2CCCCC2)C(=O)N(C)CC(=O)N[C@@H](CCc2ccc(C(F)(F)F)c(Cl)c2)C(=O)N2CCC[C@H]2C(=O)NC2(CCCC2)C(=O)N(C)[C@@H](CC(C)C)C(=O)N[C@H](C)CC(=O)N1C [Compound 1452] (cyclo([Ac5c][NMeL][d(β3hA)][NMeL]V[Sar][Sar][NMeCha][Sar][hPhe(3-Cl-4-CF3)]P))
IC50: 38 nM

CC(C)C[C@H]1C(=O)N[C@@H](C2CCCCC2)C(=O)N(C)CC(=O)N(C)CC(=O)N(C)[C@@H](CCCCC(F)F)C(=O)N(C)CC(=O)N[C@@H](CCc2ccc(C(F)(F)F)c(F)c2)C(=O)N(C)[C@@H](CC(C)C)C(=O)NC(C)(C)C(=O)N(C)[C@@H](CC(C)C)C(=O)N[C@H](C(=O)N2CCCC2)CC(=O)N1C [Compound 1453] ([NMeL][Chg][Sar][Sar][NMeNle(6-CHF2)][Sar][hPhe(3-F,4-CF3)][NMeL][Aib][NMeL]D-Pyrrolidide; lactam N-11)
IC50: 110 nM

CC[C@H](C)[C@@H]1NC(=O)[C@H](CC(C)C)N(C)C(=O)C[C@@H](C(=O)N2CCCC2)NC(=O)[C@H](CC(C)C)N(C)C(=O)C(C)(C)NC(=O)[C@H](CC(C)C)N(C)C(=O)[C@H](CCc2ccc(C(F)(F)F)c(F)c2)NC(=O)CN(C)C(=O)[C@H](CCCCC(F)F)N(C)C(=O)CN(C)C(=O)CN(C)C1=O [Compound 1455] ([NMeL]I[Sar][Sar][NMeNle(6-CHF2)][Sar][hPhe(3-F,4-CF3)][NMeL][Aib][NMeL]D-Pyrrolidide; lactam N-11)
IC50: 30 nM
